# Article PMC11574108, “4-Furanylvinylquinoline derivative as a new scaffold for the design of oxidative stress initiator and glucose transporter inhibitor drugs” (Scientific Reports, 2024)
# How the values were obtained:
# U-251 = assay: Monolayer antiproliferative MTS assay; type: cell-based, human; conditions: for SI (selectivity index) U-251 / IC50: 2D monolayer; for SI (selectivity index) U-251: relative to NHDF; for IC50: Homo sapiens, MTS, 72-h incubation
# Excerpt: (§1) The human colon carcinoma cell line HCT 116 with wild-type p53 (p53^+/+) and the human glioblastoma cell line U-251 were obtained from ATCC, while the HCT 116 with a p53 deletion (p53^−/−) was kindly provided by Prof. M. Rusin from the Maria Sklodowska-Curie Memorial Cancer Center and Institute of Oncology in Gliwice, Poland. The human chronic myelogenous leukaemia cell line K562 and the normal human cell dermal fibroblast cell line NHDF were purchased from Sigma-Aldrich and PromoCell, respectively. Both the HCT 116 and U-251 cell lines were cultured in Dulbecco’s modified Eagle’s medium (DMEM) supplemented with 10% inactivated foetal bovine serum (FBS). The DMEM for the NHDF contained 15% non-inactivated FBS. K562 cells were cultured in RPMI medium completed by 10% inactivated FBS. Additionally, the media were supplemented with antibiotics (streptomycin and penicillin – 1% v/v; Sigma-Aldrich). The cell culture was conducted in 75 cm^2 flasks (Nunc) under standard conditions (37 °C, 5% CO2 humidified atmosphere). Furthermore, the cell lines were frequently tested for mycoplasma using the qRT-PCR technique with specific Mycoplasma primers to confirm the lack of contamination.
# (§2) The cells were seeded in 96-well plates (Nunc) with 5,000 or 4,000 cells per well for the cancer cells and NHDF, respectively, and incubated under standard conditions at 37 °C overnight. The culture media were then changed for freshly prepared solutions of the tested compounds in various concentrations. After 72-h incubation the antiproliferative assay was carried out as follows: the solutions of the compounds were changed in each well to 100 µL DMEM without phenol red and 20 µL of CellTiter 96 AQueous One Solution-MTS (Promega). The plates were incubated for 1 h at 37 °C, and the absorbance was then measured at 490 nm using a multi-plate reader (Synergy 4, BioTek). The experiment for each sample was repeated at least three times. The results are presented as the half-maximal inhibitory concentration (IC50) values, which were estimated in comparison to untreated cells (control) and calculated using GraphPad Prism v.8.0 (USA).
# (§3) However, the antiproliferative activity of derivative 13 with furan a ring was surprising. […] For this purpose, we selected two pancreatic cancer cell lines: AsPC-1, which is characterised by a deletion of the p53 protein[20] and PANC-1, which carries an R273H mutation. This mutation also occurred in the glioblastoma U-251 cell line[22],[23]. An additional non-adherent line that carries the TP53 mutation that results in the absence of p53 is the K562 leukemic cell line[24]. […] Moreover, 13 was selective toward […], as indicated by its SI values (3.35–9.41). Among all of the tested cell lines, the highest activity of the compound was found against the HCT 116 cells with the wild-type p53 protein (0.069 µM). […] The p53 protein also interacts with the metabolic pathways that are associated with glucose transport[25] as well as small molecules. In light of the above-mentioned facts, we also determined the cytotoxicity of the GLUT inhibitor BAY-876, which is based on a quinoline scaffold. […] Furthermore, BAY-876 was also toxic to normal cells.
# GLUT-1 [1] = assay: qRT-PCR, GLUT-1 mRNA expression; type: cell-based, human; conditions: HCT 116 p53-/-, 24 and 48 h
# Description: The cells were seeded in 35 mm Petri dishes at a density of 500,000 cells and incubated at 37 °C for 24 h. The total RNA was isolated after incubation with solutions of 13 (0.5 µM and 1.0 µM) for 24 h and 48 h, respectively. The isolation from the samples was carried out according to a TRIzol™ Reagent protocol (Thermo Fisher Scientific). Synthesis of cDNA was performed with 2 µg of total RNA using a GoScript™ Reverse Transcriptase kit (Promega) with Oligo(dT)23 Primers. Real-Time PCR was carried out using a CFX96 Touch™ Real-Time PCR Detection System (Bio-Rad) in 10 µL reaction volume. Each sample contained SsoAdvanced™ Universal SYBR Green Supermix (Bio Rad), a specific primer pair mix (0.5 µM each), and 1 µL of cDNA. […] The obtained data were analysed based on a comparison of the expression of the target genes and normalized to a reference gene (GAPDH) using the Livak-Schmittgen (2^−ΔΔCT) method. […]
# To verify the effect of derivative 13 on glucose transporters at the mRNA level, the expression of the genes encoding the best-characterised glucose transporters in cells was quantified in real-time. In addition to GLUT-1, the effect of the tested derivative on changes in the expression of GLUT-3 and GLUT-4 was also evaluated (Fig. 8). […]
# HCT 116 p53-/- = assay: Monolayer antiproliferative MTS assay; type: cell-based, human; conditions: 2D monolayer; for SI (selectivity index) HCT 116 p53-/-: relative to NHDF; for IC50: Homo sapiens, MTS, 72-h incubation
# Excerpt: as §1
# as §2, with “times.” for “times. The results are presented as the half-maximal inhibitory concentration (IC50) values, which were estimated in comparison to untreated cells (control) and calculated using GraphPad Prism v.8.0 (USA).”
# (§4) Additionally, the compounds were also tested for their cytotoxicity against normal cells – human dermal fibroblasts (NHDF).
# HCT 116 p53+/+ = assay: Monolayer antiproliferative MTS assay; type: cell-based, human; conditions: 2D monolayer; for SI (selectivity index) HCT 116 p53+/+: relative to NHDF; for IC50: Homo sapiens, MTS, 72-h incubation
# Excerpt: as §1
# as §2, with “times.” for “times. The results are presented as the half-maximal inhibitory concentration (IC50) values, which were estimated in comparison to untreated cells (control) and calculated using GraphPad Prism v.8.0 (USA).”
# as §4
# NHDF = assay: Monolayer MTS cytotoxicity against normal cells; type: cell-based; conditions: NHDF, normal human dermal fibroblasts, 72-h incubation
# Excerpt: as §1
# as §2, with “times.” for “times. The results are presented as the half-maximal inhibitory concentration (IC50) values, which were estimated in comparison to untreated cells (control) and calculated using GraphPad Prism v.8.0 (USA).”
# as §4
# AsPC-1 = assay: Monolayer antiproliferative MTS assay; type: cell-based, human; conditions: 2D monolayer; for SI (selectivity index) AsPC-1: relative to NHDF; for IC50: Homo sapiens, MTS, 72-h incubation
# Description: as §2, §3
# PANC-1 = assay: Monolayer antiproliferative MTS assay; type: cell-based, human; conditions: 2D monolayer; for SI (selectivity index) PANC-1: relative to NHDF; for IC50: Homo sapiens, MTS, 72-h incubation
# Description: as §2, §3
# K562 = assay: Monolayer antiproliferative MTS assay; type: cell-based, human; conditions: 2D model
# Excerpt: as §1, §2, §3
# GLUT-1 [2] = assay: Western blot, GLUT-1 protein level; type: cell-based, human; conditions: HCT 116 p53+/+, DOX 5 µM, both time points (24 and 48 h)
# Description: The cells (500,000) were seeded in 35 mm Petri dishes (Nunc) and incubated in a solution of the tested compound (0.5 µM and 1 µM) for 24 h and 48 h. The cells were then dissociated using trypsin, collected in Eppendorf tubes, and centrifuged at 2,000 rpm. Next, cell pellets were resuspended in complete RIPA buffer containing a Halt Protease Inhibitor Cocktail and Halt Phosphatase Inhibitor Cocktail along with 0.5 M EDTA (all reagents from Thermo Fisher Scientific) and lysed on ice for 20 min. Afterward, the lysates were sonicated and centrifuged at 10,000 rpm for 10 min at 4 °C. The obtained supernatants were collected for further analysis. The protein concentration was determined using a Micro BCA™ Protein Assay Kit (Thermo Fisher Scientific) according to the manufacturer’s procedure. Equal amounts of proteins (16 µg) were electrophoresed on SDS-Page gels and transferred onto nitrocellulose membranes. Novex Sharp Pre-Stained Protein Standard (Thermo Fisher Scientific) was used as a colored molecular weight marker. The membranes were blocked in 5% non-fat milk prepared in TPBS (PBS supplemented by 0.1% Tween-20) for 1 h. After blocking, the membranes were cut, and then incubated with specific primary monoclonal antibodies (all purchased from Cell Signaling) overnight at 4 °C. The antibodies for the target proteins (CDK1 Mouse mAb #9116, p53 Mouse mAb #2524, FAS Mouse mAb #8023, GLUT-1 Rabbit mAb #12939, HO-1 Rabbit mAb #5853, p21^Waf1/Cip1 Rabbit mAb #2947, PARP #9542) were diluted 1:1000, while the antibodies for the reference proteins (GAPDH Rabbit mAb #2118, β-actin Mouse mAb #3700, and vinculin Rabbit mAb #13901) were diluted 1:2000. The following day, the membranes were washed in TPBS and incubated with horseradish peroxidase (HRP)-conjugated secondary antibodies (Anti-rabbit IgG, HRP-linked Antibody #7074 or Anti-mouse IgG, HRP-linked Antibody #7076) for 1 h at room temperature. The membranes were then washed in TPBS and incubated with a SuperSignal™ West Pico Chemiluminescent Substrate (Thermo Fisher Scientific). Finally, the membranes were visualized using a ChemiDoc™ XRS + System (Bio-Rad). The experiments were carried out four to five times. The densitometric analysis was performed using ImageJ software (Wayne Rasband, National Institutes of Health, USA).
# We, therefore, decided to test the effect of the tested compound on the level of the main glucose transporter, GLUT-1. […] The validity of the described conclusions was confirmed by the results that were obtained for doxorubicin. in which p53 activation occurred at both tested time points with a concomitant decrease in the GLUT-1 levels. […] The results that were obtained from the measurements of the expression of this protein were so interesting, and at the same time, inconclusive that we additionally decided to determine the effect of the tested derivative 13 on the expression of the genes encoding selected glucose transporters.
structure (smiles),measurement,setting,value
Cc1c(NC(=O)c2cc(C(N)=O)nc3cc(F)ccc23)c(C(F)(F)F)nn1Cc1ccc(C#N)cc1 [BAY-876],SI (selectivity index) U-251,U-251,< 0.17
same,IC50,"U-251; U-251, 72 h",> 25000 nM
same,activity in U-251,U-251; at 25 µM,not active
same,GLUT-1 mRNA level vs control,GLUT-1 [1],increased its expression
same,SI (selectivity index) HCT 116 p53-/-,HCT 116 p53-/-,0.40
same,IC50,"HCT 116 p53-/-; HCT-116, 72 h",10800 ± 810 nM
same,SI (selectivity index) HCT 116 p53+/+,HCT 116 p53+/+,2.53
same,IC50,"HCT 116 p53+/+; HCT-116, 72 h",1710 ± 270 nM
same,IC50,NHDF,4330 ± 480 nM
same,SI (selectivity index) AsPC-1,AsPC-1,27.06
same,IC50,"AsPC-1; ASPC1, 72 h",160 ± 10 nM
same,SI (selectivity index) PANC-1,PANC-1,123.71
same,IC50,"PANC-1; PANC-1, 72 h",35 ± 4 nM
"COc1cccc2c1C(=O)c1c(O)c3c(c(O)c1C2=O)C[C@@](O)(C(=O)CO)C[C@@H]3O[C@H]1C[C@H](N)[C@H](O)[C@H](C)O1 [Doxorubicin, reference compound]",SI (selectivity index) U-251,U-251,2.80
same,IC50,U-251; U-251,50 ± 20 nM
same,SI (selectivity index) K562,K562; relative to NHDF,7.00
same,IC50,"K562; Homo sapiens, K562, MTS, 72-h incubation",20 ± 10 nM
same,SI (selectivity index) HCT 116 p53-/-,HCT 116 p53-/-,0.37
same,IC50,HCT 116 p53-/-; HCT-116,380 ± 30 nM
same,SI (selectivity index) HCT 116 p53+/+,HCT 116 p53+/+,0.41
same,IC50,HCT 116 p53+/+; HCT-116,340 ± 40 nM
same,IC50,NHDF,140 ± 30 nM
same,SI (selectivity index) AsPC-1,AsPC-1,0.16
same,IC50,AsPC-1; ASPC1,860 ± 130 nM
same,SI (selectivity index) PANC-1,PANC-1,0.19
same,IC50,PANC-1; PANC-1,730 ± 90 nM
same,GLUT-1 protein level vs control,GLUT-1 [2],decrease
